Assays:
Type in all cases: binding
Settings in all cases: 1 = hit, 0 = no hit
[1] = biological target: T1, CAMK1G (1-320) (Homo sapiens, UniProt Q96NX5); experiment: STD-NMR fragment screening, CAMK1G
T1 construct: made in house; host or cells: E. coli BL21 (DE3) pLysS
Experimental: (§1) All fragments were stored at −20°C as solids in argon flushed glass bottles. For NMR screening, fragments were weighed and dissolved in DMSO-d6 to a stock concentration of 300 mM. Mother plates were prepared with a 100 mM concentration. From these plates, daughter plates were prepared with the fragments mixed in the plates to a concentration of 50 mM for each fragment. Daughter plates were opened a maximum of eight times. The plates were argon flushed and sealed with a HT121TS (HTA) and Foil Heat Seal (Biozym).
(§2) For long time measurements, like the protein ^1H NMR spectrum, the buffer exchange was performed twice to reduce residual buffer peaks. All experiments were performed on a Bruker Avance III HDX 700 instrument, equipped with a 5 mm Prodigy TCI cryo-probehead. For every protein, a standard ^1H NMR experiment with 1 k scans and water suppression through presaturation was performed. […] The on-resonance frequency, which was determined from the ^1H NMR spectra of the protein, was between 0.5 and 0.6 ppm; 40 ppm was used as the off-resonance frequency. For an interleaved acquisition of the on- and off-resonance, a pseudo-2D scheme was applied. The saturation was done by Gaussian pulses with a length of 50 ms and 60 dB of attenuation, with an interpulse delay of 1 ms leading to an excitation bandwidth of about 42 Hz. The screening was done with 16 scans of on- and off-resonance scans each, with a 3 s saturation time. The samples contained final concentrations of 20 µM protein, 10% (^V/V) DMSO-d6, and 1 mM of each of the two fragments. A ^1H-NMR experiment was performed for each compound to act as a reference spectrum in the STD experiments. All NMR experiments were carried out at 25°C.
(§3) Fifteen of these compounds contain the same halogen twice. No compound bears mixtures of different halogen atoms. Four proteins (AAK1, CAMK1G, IDO1, and DOT1L) were screened against this HEFLib using STD-NMR. A fragment was considered a hit if the peak intensity in the difference spectrum was three times higher than the local background noise. […] Chemical compatibility and peak complementarity were assured for these mixtures. Samples containing more than two fragments were avoided to minimize the possible target competition and to decrease the risk of fragment interactions. […] The ^1H reference NMR spectrum of the mixture is shown in red for comparison. […] As fragment mixtures can lead to competitive effects between their fragments, it is not advised to use the quantification of peak mixtures for hit ranking.

[2] = biological target: T2, IDO1 (1-435) (Homo sapiens, UniProt P14902); experiment: STD-NMR fragment screening, IDO1
T2 construct: His-tag of pET15b with TEV site (thrombin site replaced) (cleaved yes); made in house; host or cells: E. coli Rosetta 2 (DE3) pLysS
T2 sequence (P14902 whole entry, the tested form may be a part): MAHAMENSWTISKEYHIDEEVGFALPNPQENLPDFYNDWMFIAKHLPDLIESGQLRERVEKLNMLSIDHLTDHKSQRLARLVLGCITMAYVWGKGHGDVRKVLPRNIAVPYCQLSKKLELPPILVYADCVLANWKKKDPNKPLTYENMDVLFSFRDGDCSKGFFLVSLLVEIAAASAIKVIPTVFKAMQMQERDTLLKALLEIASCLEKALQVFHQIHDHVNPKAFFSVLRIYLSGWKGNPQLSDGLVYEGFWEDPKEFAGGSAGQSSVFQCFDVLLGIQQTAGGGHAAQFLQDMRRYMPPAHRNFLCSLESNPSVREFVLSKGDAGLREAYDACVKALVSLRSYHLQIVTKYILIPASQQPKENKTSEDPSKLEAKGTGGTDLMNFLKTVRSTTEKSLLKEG
Experimental: as §1, §2, §3

[3] = biological target: T3, DOT1L (1-416) (Homo sapiens, UniProt Q8TEK3); experiment: STD-NMR fragment screening, DOT1L
T3 construct: made in house; host or cells: E. coli BL21 (DE3) pLysS
T3 sequence (Q8TEK3 1-416): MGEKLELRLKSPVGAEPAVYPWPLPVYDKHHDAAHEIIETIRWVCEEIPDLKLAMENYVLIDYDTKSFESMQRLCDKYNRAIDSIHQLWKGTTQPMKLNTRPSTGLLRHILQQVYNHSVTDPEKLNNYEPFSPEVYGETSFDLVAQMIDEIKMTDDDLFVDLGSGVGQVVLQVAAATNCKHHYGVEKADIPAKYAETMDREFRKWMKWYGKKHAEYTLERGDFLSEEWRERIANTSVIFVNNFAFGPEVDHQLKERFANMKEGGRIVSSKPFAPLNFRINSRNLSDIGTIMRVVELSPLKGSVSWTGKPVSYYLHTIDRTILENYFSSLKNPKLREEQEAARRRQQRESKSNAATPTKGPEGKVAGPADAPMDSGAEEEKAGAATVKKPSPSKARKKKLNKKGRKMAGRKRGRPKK
Experimental: as §1, §2, §3

[4] = biological target: AAK1 (121-471) (Homo sapiens, UniProt Q2M2I8); experiment: STD-NMR fragment screening, AAK1
Sequence of AAK1 (121-471) (Q2M2I8 46-315 limits assumed): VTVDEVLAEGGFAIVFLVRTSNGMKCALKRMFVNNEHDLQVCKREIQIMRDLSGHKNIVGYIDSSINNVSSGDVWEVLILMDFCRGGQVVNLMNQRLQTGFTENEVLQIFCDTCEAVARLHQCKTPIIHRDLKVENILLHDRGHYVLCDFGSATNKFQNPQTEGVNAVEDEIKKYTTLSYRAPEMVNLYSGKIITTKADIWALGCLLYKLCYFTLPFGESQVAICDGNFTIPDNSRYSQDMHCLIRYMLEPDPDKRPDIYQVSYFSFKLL
Experimental: as §1, §2, §3

T1 sequence (Q96NX5 1-320): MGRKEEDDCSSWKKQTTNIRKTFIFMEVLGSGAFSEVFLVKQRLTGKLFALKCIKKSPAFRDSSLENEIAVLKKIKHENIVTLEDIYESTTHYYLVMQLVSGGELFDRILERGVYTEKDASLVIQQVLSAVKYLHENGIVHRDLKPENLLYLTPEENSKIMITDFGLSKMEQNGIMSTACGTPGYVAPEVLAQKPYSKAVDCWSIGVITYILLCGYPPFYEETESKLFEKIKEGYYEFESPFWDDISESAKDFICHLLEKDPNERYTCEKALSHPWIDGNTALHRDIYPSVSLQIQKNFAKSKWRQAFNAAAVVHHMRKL

Compound | CAMK1G (STD-NMR hit flag) [1] | IDO1 (STD-NMR hit flag) [2] | DOT1L (STD-NMR hit flag) [3] | AAK1 (STD-NMR hit flag) [4]
Nc1c(Cl)ccc2nonc12 [Fragment B02291217] | 0 | 0 | 0 | 1
Cn1nc(Br)nc1NN [Fragment B02290120] | 1 | 0 | 1 | 0
Cc1nn(CCN)cc1Cl [Fragment B02291152] | 0 | 0 | 0 | 0
O=C(O)c1cc(Br)c[nH]1 [Fragment B02291264] | 0 | 0 | 0 | 0
Nc1ncccc1I [Fragment B02289600] | 1 | 0 | 0 | 0
OCc1c(Cl)nc2sccn12 [Fragment B02291233] | 0 | 0 | 0 | 1
Nc1cnccc1I [Fragment B02289607] | 0 | 0 | 0 | 1
Clc1cnc2nn[nH]c2c1 [Fragment B02290468] | 0 | 0 | 0 | 0
Nc1ccc(Cl)c(C(=O)O)c1 [Fragment B02291260] | 0 | 0 | 0 | 0
O=C(O)c1cnc(Cl)cn1 [Fragment B02291251] | 0 | 0 | 0 | 0
O=C(O)c1cc(Cl)nnc1Cl [Fragment B02290470] | 0 | 0 | 0 | 0
CN(C)S(=O)(=O)n1nccc1Br [Fragment B02290660] | 0 | 0 | 1 | 1
Clc1cccc2nnnn12 [Fragment B02291229] | 0 | 0 | 0 | 0
N#Cc1ccc(O)c(Cl)c1 [Fragment B02291257] | 0 | 0 | 0 | 1
Cn1c(Cl)cc(=O)n(C)c1=O [Fragment B02290465] | 0 | 0 | 0 | 1
Clc1ccc(CN2CCNCC2)cn1 [Fragment B02290121] | 0 | 0 | 0 | 0
COCn1nc(Br)nc1C(N)=O [Fragment B02290403] | 0 | 0 | 0 | 1
O=C(O)c1cccnc1Cl [Fragment B02291258] | 0 | 0 | 0 | 0
CCOC(Cn1cc(Cl)cn1)OCC [Fragment B02291225] | 0 | 1 | 0 | 0
O=C(O)c1n[nH]cc1Br [Fragment B02290463] | 0 | 0 | 0 | 0
Brc1csc(CN2CCNCC2)c1 [Fragment B02290122] | 0 | 0 | 0 | 0
O=C(O)c1ccc(Cl)o1 [Fragment B02290466] | 0 | 0 | 0 | 0
Nc1ccc(Br)cn1 [Fragment B02291232] | 0 | 0 | 0 | 1
Cc1ccc(N)c(Cl)n1 [Fragment B02289616] | 0 | 0 | 0 | 1
Cc1nn(C)c(Cl)c1S(N)(=O)=O [Fragment B02290522] | 0 | 1 | 0 | 1
Cc1ccc(Cl)c(CN)c1F [Fragment B02290525] | 0 | 0 | 0 | 0
Nc1ccc(C(=O)O)c(Cl)c1 [Fragment B02291259] | 0 | 0 | 0 | 0
O=C(O)c1cc(Br)c[nH]c1=O [Fragment B02290523] | 0 | 0 | 0 | 0
OCc1ccc(Cl)nc1 [Fragment B02289606] | 0 | 0 | 0 | 0

The remaining lines, values ahead:

CAMK1G (STD-NMR hit flag) [1] | IDO1 (STD-NMR hit flag) [2] | DOT1L (STD-NMR hit flag) [3] | AAK1 (STD-NMR hit flag) [4] | Compound
0 | 1 | 0 | 0 | COc1ncc(Cl)cc1C(=O)O [Fragment B02297429]
1 | 1 | 0 | 1 | COc1cc(Cl)cnc1OC [Fragment B02297394]
0 | 0 | 0 | 0 | Nc1nc(Cl)c(NC=O)c(Cl)n1 [Fragment B02297412]
1 | 1 | 0 | 1 | Cn1c2nc(Br)nc-2c(O)n(C)c1=O [Fragment B02291266]
0 | 0 | 0 | 0 | Brc1ccc(C2CNCCN2)s1 (stereo not drawn) [Fragment B02297408]
0 | 0 | 0 | 0 | CNc1cc(Cl)c2c(c1)OCO2 [Fragment B02294481]
0 | 0 | 0 | 0 | Brc1noc(C2CC2)n1 [Fragment B02291272]
0 | 0 | 0 | 0 | Cn1cc(Br)c(N)n1 [Fragment B02297415]
0 | 0 | 0 | 1 | Cc1cc(N)c(Br)cn1 [Fragment B02297406]
1 | 1 | 0 | 1 | COc1ncc(C(=O)O)cc1Cl [Fragment B02297423]
0 | 0 | 0 | 0 | Clc1ccncc1 [Fragment B02291269]
0 | 0 | 1 | 1 | COC(=O)c1cc(N)c(Cl)s1 [Fragment B02297407]
0 | 0 | 0 | 0 | CC(=O)CS(=O)(=O)c1cc(Cl)ccc1F [Fragment B02297765]
